From US10213428B2, “(4-((3R,4R)-3-methoxytetrahydro-pyran-4-ylamino)piperidin-1-yl)(5-methyl-6-(((2R,6S)-6-(p-tolyl)tetrahydro-2H-pyran-2-yl)methylamino)pyrimidin-4-yl)methanone citrate” (Centrexion Therapeutics Corporation, priority 2015, dated 2019)

Key:
[1] = Intravenous pharmacokinetics in minipig; format: in vivo, Göttingen Minipigs; conditions: IV dose 5 μmol/kg, mean values
Description: The pharmacokinetics of the test compound following single intravenous (IV) or oral (PO) doses were examined in • female BALB/c mice (average weight: 25 g) • male Wistar(Han) rats (average weight: 260 g) • male and female Göttingen Minipigs (average weight: 24 kg) • male beagle dogs (average weight: 15 kg) All non-rodent species were fasted overnight prior to dosing, while mice and rats had food and water available ad libitum. The p.o. dose of the compound was usually administered as suspension in 0.5% Natrosol or as a 0.5% Natrosol/0.015% Tween 80 suspension. For i.v. dosing purposes, the doses were applied as a solution in 0.9% NaCL, or as a solution containing 9.1% HP-beta Cyclodextrin in water.
Blood was collected by venous sampling and soaking of the blood in EDTA coated tubes. Samples were collected for up to 48 h after administration of the test compound. Plasma was then separated by centrifugation (5 min by approximately 9000 g at 4° C.). For determination of the test compound, plasma was transferred into PCR plates. All samples were stored at approximately −20° C. until bioanalytics. The test compound concentrations in plasma were determined by HPLC MS/MS. The lower limit of quantification was between 0.5 nmol/L and 1 nmol/L.

[2] = In vitro metabolic stability in hepatocyte incubations, rat; format: in vitro ADME; conditions: hepatocytes (suspension); Rat; predicted from hepatocyte CL intrinsic, well stirred model; read-out: CL, in vivo
Description: (§1) Metabolic degradation of the test compound is assayed in a hepatocyte suspension. Hepatocytes are incubated in an appropriate buffer system. Following a (typically) 30 min preincubation in an incubator (37° C., 10% CO2) 5 μL of test compound solution (1 μM) are added into 395 μL hepatocyte suspension (cell density in the range 0.25-5 Mio cells/mL, typically 1 Mio cells/mL, final DMSO concentration 0.05%). The cells are incubated for six hours (incubator, orbital shaker) and samples (25 μL) are taken at 0, 0.5, 1, 2, 4 and 6 hours. Samples are transferred into acetonitrile and pelleted by centrifugation (5 min). The supernatant is transferred to a new 96-deepwell plate, evaporated under nitrogen and resuspended. Decline of parent compound is analyzed by HPLC-MS/MS. CLint is calculated as follows CL_INTRINSIC=Dose/AUC=(CO/CD)/(AUD+clast/k)×1000/60. […]

[3] = system: hepatocytes; experiment: as above; format: in vitro ADME; conditions: Rat hepatocytes, 1 μM
Description: as §1

[4] = X-ray powder diffraction: crystallinity and polymorphism; format: physicochemical
Description: X-ray powder diagrams were generated using a STOE-STADI P-diffractometer in transmission mode fitted with a MYTHEN-detector and a Cu-anode as X-ray source with monochromatic CuKα1 radiation (λ=1.54056 Å, 40 kV, 40 mA).

[5] = In vitro metabolic stability in hepatocyte incubations, human; format: in vitro ADME; conditions: hepatocytes (suspension); Human; predicted from hepatocyte CL intrinsic, well stirred model; read-out: CL, in vivo
Description: as §1

[6] = system: hepatocytes; experiment: as above; format: in vitro ADME; conditions: Human hepatocytes, 1 μM
Description: as §1

[7] = In vitro metabolic stability in hepatocyte incubations, mouse; format: in vitro ADME; conditions: hepatocytes (suspension); Mouse; predicted from hepatocyte CL intrinsic, well stirred model; read-out: CL, in vivo
Description: as §1

[8] = system: hepatocytes; experiment: as above; format: in vitro ADME; conditions: Mouse hepatocytes, 1 μM
Description: as §1

[9] = both sexes, Göttingen, plasma, 5 umol/kg

CO[C@H]1COCC[C@H]1NC1CCN(C(=O)c2ncnc(NC[C@H]3CCC[C@@H](c4ccc(C)cc4)O3)c2C)CC1 [compound I, (4-((3R,4R)-3-methoxytetrahydro-pyran-4-ylamino)piperidin-1-yl)(5-methyl-6-(((2R,6S)-6-(p-tolyl)tetrahydro-2H-pyran-2-yl)methylamino)pyrimidin-4-yl)methanone]
MRTdisp [1]: 4.15 h
AUC(0-inf) [1, 9]: 4.31 µM·h
clearance [1, 9]: 20 mL/min/kg
Vd ([1]; both sexes, Göttingen, plasma, 5 umol/kg, read-out: Vss): 5.07 L/kg
CLhep predicted at 1 μM [2]: 26 mL/min/kg
CL intrinsic, in vitro [3]: 8.77 μL/min/10e6 cells
crystallinity [4]: amorphous material
CLhep predicted at 1 μM [5]: 7.9 mL/min/kg
CL intrinsic, in vitro [6]: 4.11 μL/min/10e6 cells
CLhep predicted at 1 μM [7]: 49 mL/min/kg
CL intrinsic, in vitro [8]: 16.4 μL/min/10e6 cells
